Experimental data published in paper PMC3663048 (Journal of medicinal chemistry, 2011).
Positions count from the first letter of the chain named.

Key:
[1] = test system: monastrol-arrested A549 cells; assay: Mitotic exit of monastrol-arrested A549 cells; type: cell-based, human; details: 45 min; for Phospho-Ser10 histone H3 staining (mitotic marker): 5 μM
Nek2 = biological target: T1, Nek2 (Homo sapiens, UniProt P51955); assay: In vitro kinase assay with WT Nek2; details: for Percent inhibition of Nek2 kinase activity: 5 μM, 30 min pre-incubation; for Potency against WT Nek2 (dose-response): WT Nek2, in vitro kinase assay; for inhibition at 5 µM: read-out: Percent inhibition of Nek2 kinase activity
T1 sequence (P51955 1-445): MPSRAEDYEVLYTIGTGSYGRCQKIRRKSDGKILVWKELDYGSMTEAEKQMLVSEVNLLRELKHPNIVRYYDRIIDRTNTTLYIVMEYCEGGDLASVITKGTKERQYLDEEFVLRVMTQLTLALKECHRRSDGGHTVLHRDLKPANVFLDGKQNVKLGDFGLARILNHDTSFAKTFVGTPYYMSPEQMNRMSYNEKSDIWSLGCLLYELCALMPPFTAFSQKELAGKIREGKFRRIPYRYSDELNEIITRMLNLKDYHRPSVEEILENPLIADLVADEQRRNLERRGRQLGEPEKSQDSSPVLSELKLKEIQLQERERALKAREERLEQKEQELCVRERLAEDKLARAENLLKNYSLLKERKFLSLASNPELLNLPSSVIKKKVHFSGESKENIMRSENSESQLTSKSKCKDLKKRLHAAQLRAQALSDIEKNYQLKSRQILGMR

C22V Nek2 = biological target: T2, C22V Nek2 (Homo sapiens, UniProt P51955, C22V); assay: In vitro kinase assay with C22V Nek2; type: biochemical; details: C22V mutant
T2 sequence (P51955 1-445 C22V): T1 sequence (P51955 1-445) with C22V

[2] = biological target: T3, WT Nek2 kinase domain (aa 1-271) (Homo sapiens, UniProt P51955); assay: Mass spectrometry-based covalent binding assay, WT Nek2 kinase domain; details: ten-fold molar excess of compound, physiological pH
T3 sequence (P51955 1-271): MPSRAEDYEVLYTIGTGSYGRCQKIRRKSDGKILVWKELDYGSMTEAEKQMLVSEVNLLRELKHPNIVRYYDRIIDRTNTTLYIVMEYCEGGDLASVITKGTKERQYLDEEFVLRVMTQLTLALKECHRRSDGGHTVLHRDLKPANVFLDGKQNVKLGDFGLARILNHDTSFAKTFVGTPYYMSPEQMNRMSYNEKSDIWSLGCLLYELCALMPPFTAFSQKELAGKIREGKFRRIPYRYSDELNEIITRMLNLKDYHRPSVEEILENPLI

endogenous Nek2 = biological target: T4, endogenous Nek2 (Homo sapiens, UniProt P51955); assay: Immunoprecipitation kinase assay of endogenous Nek2 from treated A549 cells; type: cell-based; details: A549, read-out: Inhibition of cellular Nek2
T4 sequence (P51955 1-445): T1 sequence (P51955 1-445)

O=C1NC(=NCc2cccs2)S/C1=C\c1ccc2ncccc2c1 [compound 19, reference compound]
Phospho-Ser10 histone H3 staining (mitotic marker) [1]: devoid of this mitotic marker

C#CC(=O)Nc1ccc2c(c1)/C(=C/c1ccc[nH]1)C(=O)N2 [compound 8, (Z)-N-(3-((1H-Pyrrol-2-yl)methylene)-2-oxoindolin-5-yl)propiolamide]
Percent inhibition of Nek2 kinase activity (Nek2): nearly complete inhibition | Potency against WT Nek2 (dose-response) (Nek2): submicromolar | inhibition at 5 µM (Nek2): > 80% | Potency against C22V Nek2 compared to WT (C22V Nek2): significantly less potent | Alkylation of WT Nek2 kinase domain (ESI-MS) [2]: alkylated WT Nek2 at a single site

O=C1Nc2ccc(C(=O)CCl)cc2/C1=C/c1ccc[nH]1 [compound 2, (Z)-3-((1H-Pyrrol-2-yl)methylene)-5-(2-chloroacetyl)indolin-2-one]
Potency against WT Nek2 (dose-response) (Nek2): submicromolar | inhibition at 5 µM (Nek2): > 80% | Potency against C22V Nek2 compared to WT (C22V Nek2): significantly less potent | Alkylation of WT Nek2 kinase domain (ESI-MS) [2]: alkylated WT Nek2 at a single site

C=CC(=O)Nc1ccc2c(c1)/C(=C/c1ccc[nH]1)C(=O)N2 [compound 7, (Z)-N-(3-((1H-Pyrrol-2-yl)methylene)-2-oxoindolin-5-yl)acrylamide]
Percent inhibition of Nek2 kinase activity (Nek2): ineffective

CCc1nc(C)c(/C=C2\C(=O)Nc3ccc(C(=O)CCl)cc32)[nH]1 [compound 11, (Z)-5-(2-Chloroacetyl)-3-((2-ethyl-4-methyl-1H-imidazol-5-yl)methylene)indolin-2-one]
Alkylation of WT Nek2 kinase domain (ESI-MS) [2]: reacted stoichiometrically

C#CC(=O)Nc1ccc2c(c1)/C(=C/c1[nH]cnc1C)C(=O)N2 [compound 15, (Z)-N-(3-((4-Methyl-1H-imidazol-5-yl)methylene)-2-oxoindolin-5-yl)propiolamide]
Phospho-Ser10 histone H3 staining (mitotic marker) [1]: devoid of this mitotic marker | % mitotic exit (5 μM) ([1]; immunofluorescence): 80%

CC#CC(=O)Nc1ccc2c(c1)/C(=C/c1[nH]c(CC)nc1C)C(=O)N2 [compound 18, (Z)-N-(3-((2-Ethyl-4-methyl-1H-imidazol-5-yl)methylene)-2-oxoindolin-5-yl)but-2-ynamide]
IC50 (Nek2): ~20 µM | inhibition at 5 µM (endogenous Nek2): 10 to 25%
